Test results: patent US20080207705A1, “Heteroaryl-Imidazole Derivatives as Cannabinoid CB1 Receptor Antagonists” (Green Cross Corporation, priority 2007, published 2008)
Where two headings read alike, the source gives them in different places.

Target: T1, rat CB-1 receptor (Rattus norvegicus, UniProt P20272)
T1 construct: The tissue obtained from the brain of SD rats was homogenized; from tissue; host or cells: brain of SD rats (membrane pellet of homogenate)
Experiment: rat CB-1 receptor binding protocol with [3H]CP-55940

[1] = [3H]CP-55940, brain tissue of SD rats, 30 °C for 60 min, read-out: IC50

T1 sequence (P20272 whole entry): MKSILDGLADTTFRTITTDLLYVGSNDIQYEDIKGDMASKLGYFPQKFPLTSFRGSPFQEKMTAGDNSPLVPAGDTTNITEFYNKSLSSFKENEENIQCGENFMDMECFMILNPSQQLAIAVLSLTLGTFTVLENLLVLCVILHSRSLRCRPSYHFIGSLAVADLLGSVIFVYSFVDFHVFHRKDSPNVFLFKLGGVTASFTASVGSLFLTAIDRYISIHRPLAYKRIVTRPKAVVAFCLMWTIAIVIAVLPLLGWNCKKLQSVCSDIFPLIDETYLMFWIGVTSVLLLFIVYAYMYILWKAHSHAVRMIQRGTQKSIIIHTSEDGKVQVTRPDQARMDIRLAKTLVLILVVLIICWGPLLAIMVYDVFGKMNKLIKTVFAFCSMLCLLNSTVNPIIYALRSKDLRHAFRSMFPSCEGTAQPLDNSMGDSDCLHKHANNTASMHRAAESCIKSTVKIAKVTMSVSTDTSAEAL

Row | SMILES | IC50 [1] | IC50
1 | CCc1c(-c2nnc(C(C)(C)C)s2)nc(-c2ccc(Cl)cc2Cl)n1-c1ccc(Cl)cc1 [Example 104, 2-tert-Butyl-5-(1-(4-chlorophenyl)-2-(2,4-dichlorophenyl)-5-ethyl-1H-imidazol-4-yl)-1,3,4-thiadiazole] | 15.8 nM | 
2 | CCCCC(C)c1nnc(-c2nc(-c3ccc(Cl)cc3Cl)n(-c3ccc(Cl)cc3)c2CC)s1 (centres unmarked) [Example 105, 2-(1-(4-Chlorophenyl)-2-(2,4-dichlorophenyl)-5-ethyl-1H-imidazol-4-yl)-5-(hexan-2-yl)-1,3,4-thiadiazole] | 8.05 nM | 
3 | CCCC(C)c1nnc(-c2nc(-c3ccc(Cl)cc3Cl)n(-c3ccc(Cl)cc3)c2CC)s1 (centres unmarked) [Example 106, 2-(1-(4-Chlorophenyl)-2-(2,4-dichlorophenyl)-5-ethyl-1H-imidazol-4-yl)-5-(pentan-2-yl)-1,3,4-thiadiazole] | 12.9 nM | 
4 | CCc1c(-c2nnc(C(C)CC)s2)nc(-c2ccc(Cl)cc2Cl)n1-c1ccc(Cl)cc1 (centres unmarked) [Example 107, 2-sec-Butyl-5-(1-(4-chlorophenyl)-2-(2,4-dichlorophenyl)-5-ethyl-1H-imidazol-4-yl)-1,3,4-thiadiazole] | 8.46 nM | 
5 | Cc1c(-c2nnc(C3CCCCC3)s2)nc(-c2ccc(Cl)cc2Cl)n1-c1ccc(Br)cc1 [Example 108, 2-(1-(4-Bromophenyl)-2-(2,4-dichlorophenyl)-5-methyl-1H-imidazol-4-yl)-5-cyclohexyl-1,3,4-thiadiazole] | 56.6 nM | 
6 | Cc1c(-c2nnc(C(C)(C)C)s2)nc(-c2ccc(Cl)cc2Cl)n1-c1ccc(Br)cc1 [Example 109, 2-(1-(4-Bromophenyl)-2-(2,4-dichlorophenyl)-5-methyl-1H-imidazol-4-yl)-5-tert-butyl-1,3,4-thiadiazole] | 3.45 nM | 
7 | CCc1c(-c2nnc(C(C)(C)C)s2)nc(-c2ccc(Cl)cc2Cl)n1-c1ccc(Br)cc1 [Example 110, 2-(1-(4-Bromophenyl)-2-(2,4-dichlorophenyl)-5-ethyl-1H-imidazol-4-yl)-5-tert-butyl-1,3,4-thiadiazole] | 1.91 nM | 
8 | Cc1c(-c2nnc(C3CCC3)s2)nc(-c2ccc(Cl)cc2Cl)n1-c1ccc(Br)cc1 [Example 111, 2-(1-(4-Bromophenyl)-2-(2,4-dichlorophenyl)-5-methyl-1H-imidazol-4-yl)-5-cyclobutyl-1,3,4-thiadiazole] | 27.8 nM | 
9 | CCc1c(-c2nnc(C3CCC3)s2)nc(-c2ccc(Cl)cc2Cl)n1-c1ccc(Br)cc1 [Example 112, 2-(1-(4-Bromophenyl)-2-(2,4-dichlorophenyl)-5-ethyl-1H-imidazol-4-yl)-5-cyclobutyl-1,3,4-thiadiazole] | 14 nM | 
10 | CC(C)(C)c1nnc(-c2nc(-c3ccc(Cl)cc3Cl)n(-c3ccc(Cl)cc3)c2C2CC2)s1 [Example 113, 2-tert-Butyl-5-(1-(4-chlorophenyl)-5-cyclopropyl-2-(2,4-dichlorophenyl)-1H-imidazol-4-yl)-1,3,4-thiadiazole] |  | 58 nM
11 | CC(C)c1c(-c2nnc(C(C)(C)C)s2)nc(-c2ccc(Cl)cc2Cl)n1-c1ccc(Br)cc1 [Example 114, 2-(1-(4-Bromophenyl)-2-(2,4-dichlorophenyl)-5-isopropyl-1H-imidazo-4-yl)-5-tert-butyl-1,3,4-thiadiazole] | 6.49 nM | 
12 | CCCc1c(-c2nnc(C(C)(C)C)s2)nc(-c2ccc(Cl)cc2Cl)n1-c1ccc(Br)cc1 [Example 119, 2-(1-(4-Bromophenyl)-2-(2,4-dichlorophenyl)-5-propyl-1H-imidazol-4-yl)-5-tert-butyl-1,3,4-thiadiazole] | 13.5 nM | 
13 | CCCc1c(-c2nnc(C3CCCCC3)s2)nc(-c2ccc(Cl)cc2Cl)n1-c1ccc(Br)cc1 [Example 120, 2-(1-(4-Bromophenyl)-2-(2,4-dichlorophenyl)-5-propyl-1H-imidazol-4-yl)-5-cyclohexyl-1,3,4-thiadiazole] | 44.3 nM | 
14 | CCCc1c(-c2nnc(C3CCC3)s2)nc(-c2ccc(Cl)cc2Cl)n1-c1ccc(Br)cc1 [Example 122, 2-(1-(4-Bromophenyl)-2-(2,4-dichlorophenyl)-5-propyl-1H-imidazol-4-yl)-5-cyclobutyl-1,3,4-thiadiazole] | 37.4 nM | 
15 | CCCc1c(-c2nnc(C(C)(C)C)s2)nc(-c2ccc(Cl)cc2Cl)n1-c1ccc(Cl)cc1 [Example 125, 2-tert-Butyl-5-(1-(4-chlorophenyl)-2-(2,4-dichlorophenyl)-5-propyl-1H-imidazol-4-yl)-1,3,4-thiadiazole] | 7.94 nM | 
16 | CCCc1c(-c2nnc(C3CCC3)s2)nc(-c2ccc(Cl)cc2Cl)n1-c1ccc(Cl)cc1 [Example 126, 2-(1-(4-Chlorophenyl)-2-(2,4-dichlorophenyl)-5-propyl-1H-imidazol-4-yl)-5-cyclobutyl-1,3,4-thiadiazole] | 13.5 nM | 
17 | CCCc1c(-c2nnc(C3CCCCC3)s2)nc(-c2ccc(Cl)cc2Cl)n1-c1ccc(Cl)cc1 [Example 129, 2-(1-(4-Chlorophenyl)-2-(2,4-dichlorophenyl)-5-propyl-1H-imidazol-4-yl)-5-cyclohexyl-1,3,4-thiadiazole] | 51.5 nM | 
18 | Cc1c(-c2nnc(C3(C(F)(F)F)CC3)s2)nc(-c2ccc(Cl)cc2Cl)n1-c1ccc(Br)cc1 [Example 136, 2-(1-(4-Bromophenyl)-2-(2,4-dichlorophenyl)-5-methyl-1H-imidazol-4-yl)-5-(1-(trifluoromethyl)cyclopropyl)-1,3,4-thiadiazole] | 47.1 nM | 

Second part, led by results:

Row | IC50 [1] | SMILES | IC50
19 | 5.66 nM | CC(C)c1c(-c2nnc(C3(c4ccccc4)CC3)s2)nc(-c2ccc(Cl)cc2Cl)n1-c1ccc(Br)cc1 [Example 116, 2-(1-(4-Bromophenyl)-2-(2,4-dichlorophenyl)-5-isopropyl-1H-imidazol-4-yl)-5-(1-phenylcyclopropyl)-1,3,4-thiadiazole] | 
20 | 8.29 nM | CCc1c(-c2nnc(C3(c4ccccc4)CC3)s2)nc(-c2ccc(Cl)cc2Cl)n1-c1ccc(Br)cc1 [Example 117, 2-(1-(4-Bromophenyl)-2-(2,4-dichlorophenyl)-5-ethyl-1H-imidazol-4-yl)-5-(1-phenylcyclopropyl)-1,3,4-thiadiazole] | 
21 | 7.54 nM | CC(C)c1c(-c2nnc(C3(c4ccccc4)CC3)s2)nc(-c2ccc(Cl)cc2Cl)n1-c1ccc(Cl)cc1 [Example 118, 2-(1-(4-Chlorophenyl)-2-(2,4-dichlorophenyl)-5-isopropyl-1H-imidazol-4-yl)-5-(1-phenylcyclopropyl)-1,3,4-thiadiazole] | 
22 | 13.2 nM | CCCc1c(-c2nnc(C3(c4ccccc4)CC3)s2)nc(-c2ccc(Cl)cc2Cl)n1-c1ccc(Br)cc1 [Example 121, 2-(1-(4-Bromophenyl)-2-(2,4-dichlorophenyl)-5-propyl-1H-imidazol-4-yl)-5-(1-phenylcyclopropyl)-1,3,4-thiadiazole] | 
23 | 4.48 nM | CCCc1c(-c2nnc(C3(c4ccc(Cl)cc4)CC3)s2)nc(-c2ccc(Cl)cc2Cl)n1-c1ccc(Br)cc1 [Example 123, 2-(1-(4-Bromophenyl)-2-(2,4-dichlorophenyl)-5-propyl-1H-imidazol-4-yl)-5-(1-(4-chlorophenyl)cyclopropyl)-1,3,4-thiadiazole] | 
24 | 1.79 nM | CCCc1c(-c2nnc(C3(c4ccc(Cl)cc4)CCC3)s2)nc(-c2ccc(Cl)cc2Cl)n1-c1ccc(Br)cc1 [Example 124, 2-(1-(4-Bromophenyl)-2-(2,4-dichlorophenyl)-5-propyl-1H-imidazol-4-yl)-5-(1-(4-chlorophenyl)cyclobutyl)-1,3,4-thiadiazole] | 
25 | 3.43 nM | CCCc1c(-c2nnc(C3(c4ccc(Cl)cc4)CC3)s2)nc(-c2ccc(Cl)cc2Cl)n1-c1ccc(Cl)cc1 [Example 127, 2-(1-(4-Chlorophenyl)-2-(2,4-dichlorophenyl)-5-propyl-1H-imidazol-4-yl)-5-(1-(4-chlorophenyl)cyclopropyl)-1,3,4-thiadiazole] | 
26 | 3.5 nM | CCCc1c(-c2nnc(C3(c4ccc(Cl)cc4)CCC3)s2)nc(-c2ccc(Cl)cc2Cl)n1-c1ccc(Cl)cc1 [Example 128, 2-(1-(4-Chlorophenyl)-2-(2,4-dichlorophenyl)-5-propyl-1H-imidazol-4-yl)-5-(1-(4-chlorophenyl)cyclobutyl)-1,3,4-thiadiazole] | 
27 | 4.53 nM | CCc1c(-c2nnc(C3(c4ccc(Cl)cc4)CC3)s2)nc(-c2ccc(Cl)cc2Cl)n1-c1ccc(Br)cc1 [Example 130, 2-(1-(4-Bromophenyl)-2-(2,4-dichlorophenyl)-5-ethyl-1H-imidazol-4-yl)-5-(1-(4-chlorophenyl)cyclopropyl)-1,3,4-thiadiazole] | 
28 | 4.79 nM | CCc1c(-c2nnc(C3(c4ccc(Cl)cc4)CCC3)s2)nc(-c2ccc(Cl)cc2Cl)n1-c1ccc(Br)cc1 [Example 131, 2-(1-(4-Bromophenyl)-2-(2,4-dichlorophenyl)-5-ethyl-1H-imidazol-4-yl)-5-(1-(4-chlorophenyl)cyclobutyl)-1,3,4-thiadiazole] | 
29 | 9.21 nM | CCc1c(-c2nnc(C3(c4ccc(OC)cc4)CC3)s2)nc(-c2ccc(Cl)cc2Cl)n1-c1ccc(Br)cc1 [Example 132, 2-(1-(4-Bromophenyl)-2-(2,4-dichlorophenyl)-5-ethyl-1H-imidazol-4-yl)-5-(1-(4-methoxyphenyl)cyclopropyl)-1,3,4-thiadiazole] | 
30 | 5.72 nM | CCc1c(-c2nnc(C3(c4ccc(C)cc4)CC3)s2)nc(-c2ccc(Cl)cc2Cl)n1-c1ccc(Br)cc1 [Example 133, 2-(1-(4-Bromophenyl)-2-(2,4-dichlorophenyl)-5-ethyl-1H-imidazol-4-yl)-5-(1-p-tolylcyclopropyl)-1,3,4-thiadiazole] | 
31 | 6.57 nM | CCc1c(-c2nnc(C3(c4ccc(Cl)cc4Cl)CC3)s2)nc(-c2ccc(Cl)cc2Cl)n1-c1ccc(Br)cc1 [Example 134, 2-(1-(4-Bromophenyl)-2-(2,4-dichlorophenyl)-5-ethyl-1H-imidazol-4-yl)-5-(1-(2,4-dichlorophenyl)cyclopropyl)-1,3,4-thiadiazole] | 
32 | 1.87 nM | CCc1c(-c2nnc(C3(c4ccc(Cl)cc4)CCCC3)s2)nc(-c2ccc(Cl)cc2Cl)n1-c1ccc(Br)cc1 [Example 135, 2-(1-(4-Bromophenyl)-2-(2,4-dichlorophenyl)-5-ethyl-1H-imidazol-4-yl)-5-(1-(4-chlorophenyl)cyclopentyl)-1,3,4-thiadiazole] | 
